According to a compilation of properties of binary mixtures (doi:10.1016/j.molliq.2020.114720):

Test: xn = mol fraction of the nth substance listed
Conditions: 101 kPa

For `CC(=O)[O-].CCCCC[n+]1ccccc1` + O, the electrical conductivity (293.15 K, x1 = 0.9143) was 0.0061 S/m, the electrical conductivity (293.15 K, x1 = 0.948) was 0.0049 S/m and the electrical conductivity (293.15 K, x1 = 0.9673) was 0.0043 S/m. For the same molecule, the electrical conductivity (293.15 K, x2 = 0.0023) was 0.0034 S/m, the electrical conductivity (298.15 K, x1 = 0.9143) was 0.0106 S/m and the electrical conductivity (298.15 K, x1 = 0.9314) was 0.0094 S/m. It also gave an electrical conductivity (298.15 K, x1 = 0.9673) of 0.007 S/m, an electrical conductivity (298.15 K, x2 = 0.0023) of 0.0053 S/m and an electrical conductivity (303.15 K, x1 = 0.9143) of 0.0175 S/m. For the same molecule, the electrical conductivity (303.15 K, x1 = 0.9163) was 0.0173 S/m, the electrical conductivity (303.15 K, x1 = 0.948) was 0.0128 S/m and the electrical conductivity (303.15 K, x1 = 0.9673) was 0.0112 S/m. It also gave an electrical conductivity (303.15 K, x2 = 0.0023) of 0.0081 S/m, an electrical conductivity (308.15 K, x1 = 0.9143) of 0.024 S/m and an electrical conductivity (308.15 K, x1 = 0.948) of 0.0185 S/m. It also gave an electrical conductivity (308.15 K, x1 = 0.9673) of 0.0162 S/m, an electrical conductivity (308.15 K, x2 = 0.0023) of 0.0121 S/m and an electrical conductivity (313.15 K, x1 = 0.9143) of 0.036 S/m. The electrical conductivity (313.15 K, x1 = 0.9314) was 0.0335 S/m, the electrical conductivity (313.15 K, x1 = 0.948) was 0.029 S/m and the electrical conductivity (313.15 K, x1 = 0.9673) was 0.0245 S/m. The electrical conductivity (313.15 K, x2 = 0.0023) was 0.0179 S/m, the electrical conductivity (318.15 K, x1 = 0.9143) was 0.051 S/m and the electrical conductivity (318.15 K, x1 = 0.9314) was 0.0438 S/m. The electrical conductivity (318.15 K, x2 = 0.0023) was 0.0266 S/m, the electrical conductivity (323.15 K, x1 = 0.9143) was 0.071 S/m and the electrical conductivity (323.15 K, x1 = 0.9314) was 0.0623 S/m. The electrical conductivity (323.15 K, x1 = 0.948) was 0.0532 S/m, the electrical conductivity (323.15 K, x1 = 0.9673) was 0.0459 S/m and the electrical conductivity (328.15 K, x1 = 0.9143) was 0.093 S/m. The electrical conductivity (328.15 K, x1 = 0.9163) was 0.092 S/m, the electrical conductivity (328.15 K, x1 = 0.948) was 0.0715 S/m and the electrical conductivity (328.15 K, x1 = 0.9673) was 0.061 S/m. It also gave an electrical conductivity (328.15 K, x2 = 0.0023) of 0.045 S/m, an electrical conductivity (333.15 K, x1 = 0.9163) of 0.125 S/m and an electrical conductivity (333.15 K, x1 = 0.9314) of 0.111 S/m. It also gave an electrical conductivity (333.15 K, x1 = 0.948) of 0.095 S/m, an electrical conductivity (333.15 K, x1 = 0.9673) of 0.0805 S/m and an electrical conductivity (333.15 K, x2 = 0.0023) of 0.0572 S/m. It also gave an electrical conductivity (338.15 K, x1 = 0.9163) of 0.171 S/m, an electrical conductivity (338.15 K, x1 = 0.9314) of 0.151 S/m and an electrical conductivity (338.15 K, x1 = 0.9673) of 0.109 S/m. For the same molecule, the electrical conductivity (338.15 K, x2 = 0.0023) was 0.0766 S/m, the electrical conductivity (343.15 K, x1 = 0.9143) was 0.226 S/m and the electrical conductivity (343.15 K, x1 = 0.9163) was 0.222 S/m. For the same molecule, the electrical conductivity (343.15 K, x1 = 0.948) was 0.17 S/m, the electrical conductivity (343.15 K, x1 = 0.9673) was 0.138 S/m and the electrical conductivity (343.15 K, x2 = 0.0023) was 0.0955 S/m.
